# ChEMBL document CHEMBL1201862, “PubChem BioAssay data set” (2004)
#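 Exposure lasted 48 hours, with cells grown in 96-well plates and compounds tested at five concentrations. At the GI50, growth is halved.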 Activity calls are given as the source filed them. Cut-off read from the data, not from the text of the source: active = GI50 up to about 1.1 µM and inactive = higher.
# Experiments:
# Test in all cases: DTP human tumour cell line panel, 48 h
# [1] = test system: SN12C
# [2] = test system: TK-10
# [3] = test system: SK-MEL-28
# [4] = test system: KM12
# [5] = test system: OVCAR-4
# [6] = test system: Malme-3M
# [7] = test system: OVCAR-8
# [8] = test system: EKVX
# [9] = test system: M14
# [10] = test system: K562
# [11] = test system: UO-31
# [12] = test system: SF-539
# [13] = test system: SF-268
# [14] = test system: MOLT-4
# [15] = test system: SR
# [16] = test system: A498
# [17] = test system: SNB-75
# [18] = test system: OVCAR-3
# [19] = test system: UACC-62
# [20] = test system: RPMI-8226
SMILES,GI50 [1],GI50 [2],GI50 [3],GI50 [4],GI50 [5],GI50 [6],GI50 [7],GI50 [8],GI50 [9],GI50 [10],GI50 [11],GI50 [12],GI50 [13],GI50 [14],GI50 [15],GI50 [16],GI50 [17],GI50 [18],GI50 [19],GI50 [20]
O=C(C1=C(C(=O)c2ccccc2)SC2(S1)C(C(=O)c1ccccc1)=C(C(=O)c1ccccc1)Sc1c2ssc1=O)c1ccccc1,26.7 µM (inactive),70.1 µM (inactive),> 100 µM (inactive),29.8 µM (inactive),36.7 µM (inactive),> 100 µM (inactive),44.5 µM (inactive),> 100 µM (inactive),37.3 µM (inactive),30.4 µM (inactive),22.4 µM (inactive),24.4 µM (inactive),67.5 µM (inactive),1.11 µM (active),9.51 µM (inactive),17.2 µM (inactive),36.7 µM (inactive),67.6 µM (inactive),22.4 µM (inactive),
C1CCCCc2nc3c(nc2CCC1)c1nc2c(nc1c1nc4c(nc31)CCCCCCCC4)CCCCCCCC2,> 100 µM (inactive),> 100 µM (inactive),> 100 µM (inactive),> 100 µM (inactive),,> 100 µM (inactive),> 100 µM (inactive),,> 100 µM (inactive),> 100 µM (inactive),> 100 µM (inactive),> 100 µM (inactive),> 100 µM (inactive),> 100 µM (inactive),> 100 µM (inactive),> 100 µM (inactive),> 100 µM (inactive),,> 100 µM (inactive),
COc1ccc(-c2cc(N3CCN(c4ccccc4)CC3)c(C#N)c(=O)o2)cc1,30.2 µM (inactive),22.4 µM (inactive),15.6 µM (inactive),> 100 µM (inactive),4.59 µM (inactive),19.4 µM (inactive),20.7 µM (inactive),23.8 µM (inactive),> 100 µM (inactive),61 µM (inactive),13.2 µM (inactive),11.3 µM (inactive),8.55 µM (inactive),> 100 µM (inactive),> 100 µM (inactive),26.9 µM (inactive),7.41 µM (inactive),,,62.5 µM (inactive)
O=C(O)/C(O)=C1/C=C(c2ccccc2)c2ccccc21,23.8 µM (inactive),31.6 µM (inactive),,17.8 µM (inactive),26.1 µM (inactive),25.5 µM (inactive),23.9 µM (inactive),,21.1 µM (inactive),26.1 µM (inactive),19.3 µM (inactive),29.9 µM (inactive),22 µM (inactive),14.8 µM (inactive),18.7 µM (inactive),31.7 µM (inactive),22 µM (inactive),,16.1 µM (inactive),19.4 µM (inactive)
O=C(Nc1nccs1)c1c(O)nc2sccn2c1=O,> 10 µM (inactive),> 10 µM (inactive),> 10 µM (inactive),> 10 µM (inactive),> 10 µM (inactive),> 10 µM (inactive),> 10 µM (inactive),> 10 µM (inactive),> 10 µM (inactive),,6.55 µM (inactive),> 10 µM (inactive),> 10 µM (inactive),> 10 µM (inactive),> 10 µM (inactive),> 10 µM (inactive),> 10 µM (inactive),> 10 µM (inactive),> 10 µM (inactive),> 10 µM (inactive)
CSc1nc2c(nc(N)n2C2OCC(O)C(O)C2O)c(=O)[nH]1 (stereo not drawn),> 100 µM (inactive),> 100 µM (inactive),> 100 µM (inactive),> 100 µM (inactive),> 100 µM (inactive),> 100 µM (inactive),> 100 µM (inactive),> 100 µM (inactive),> 100 µM (inactive),> 100 µM (inactive),> 100 µM (inactive),> 100 µM (inactive),> 100 µM (inactive),> 100 µM (inactive),> 100 µM (inactive),> 100 µM (inactive),> 100 µM (inactive),> 100 µM (inactive),> 100 µM (inactive),
CC(C)=CCC/C(C)=C/CC/C(C)=C/C(O)c1ccccc1 (stereo not drawn),19.1 µM (inactive),29.1 µM (inactive),,23.6 µM (inactive),> 10 µM (inactive),19.2 µM (inactive),20.6 µM (inactive),20.1 µM (inactive),18.3 µM (inactive),61.4 µM (inactive),21 µM (inactive),,18.9 µM (inactive),,20.7 µM (inactive),19.5 µM (inactive),,20.1 µM (inactive),17 µM (inactive),18.7 µM (inactive)
O=C1CCCC1C(O)(C(F)(F)Cl)C(F)(F)Cl (stereo not drawn),> 10 µM (inactive),> 10 µM (inactive),> 10 µM (inactive),> 10 µM (inactive),> 10 µM (inactive),> 10 µM (inactive),> 10 µM (inactive),> 10 µM (inactive),> 10 µM (inactive),> 10 µM (inactive),,> 10 µM (inactive),> 10 µM (inactive),> 10 µM (inactive),> 10 µM (inactive),> 10 µM (inactive),> 10 µM (inactive),> 10 µM (inactive),> 10 µM (inactive),> 10 µM (inactive)
